Experimental data as given in US5714142A, “Method and compositions for increasing the serum half-life of pharmacologically active agents by binding to transthyretin-selective ligands” (priority 1996, dated 1998).
Where two headings read alike, the source gives them in different places.

Columns and labels:
TTR (transthyretin) = TTR (transthyretin) (Homo sapiens, UniProt P02766); assay: percent inhibition of radiolabelled T4 binding to TTR (procedure of R. Somack et al.); details: for inhibition at 10 µM: read-out: ~% T4 (percent inhibition of radiolabelled T4 binding to TTR); for inhibition at 1 µM: [I] 1 uM
Source text: Results are set forth in the following table, wherein "%T4 " represents the percent inhibition of radiolabelled T4 binding to TTR".

[1] = cited from earlier work
human astrocytoma cells = details: C. M. Divino et al. 1990; cited from earlier work

Row | inhibition at 10 µM (TTR (transthyretin); [I] 10 uM) [%] | Compound | further results
1 | ~85 | OCCc1cc(I)c(O)c(I)c1 | 
2 |  | superoxide dismutase | half-life ([1]; unconjugated, G. D. Mao et al. 1989): five
3 |  | Oc1c(I)cc(I)cc1I | inhibition at 10 µM (TTR (transthyretin)): ~90%
4 |  | transthyretin | t1/2 ([1]; up to about): up to two; binding to cell sites (human astrocytoma cells): binds to specific high affinity sites on human astrocytoma cells
5 | ~90 | O=C(Cc1cc(I)c(O)c(I)c1)OCC#CCO | 
6 | ~90 | O=C(O)Cc1cc(I)c(Oc2cc(I)c(O)c(I)c2)c(I)c1 | 
7 | ~25 | NCCOCCOCCNC(=O)Cc1cc(I)c(O)c(I)c1 | 
8 |  | OCc1cc(I)c(O)c(I)c1 | inhibition at 1 µM (TTR (transthyretin)): ~70%
9 | ~80 | O=C(O)CCc1cc(I)c(O)c(I)c1 | 
10 |  | O=C(O)c1ccc(-c2cc(I)c(O)c(I)c2)cc1 | inhibition at 1 µM (TTR (transthyretin)): ~80%
11 | ~70 | O=C(O)Cc1cc(I)c(O)c(I)c1 | 
12 | ~15 | NCCCCCCNC(=O)Cc1cc(I)c(O)c(I)c1 | 
13 | ~40 | CC(C)(C)OC(=O)NCCCCCCNC(=O)Cc1cc(I)c(O)c(I)c1 | 
14 | ~45 | CC(C)(C)OC(=O)NCCOCCOCCNC(=O)Cc1cc(I)c(O)c(I)c1 | 
